# Test results from ChEMBL document CHEMBL1137027, “Stereoselective synthesis and preliminary evaluation of new D-3-heteroarylcarbonylalanines as ligands of the NMDA receptor” (Bioorg Med Chem Lett, 2004).
# Experiments:
# Glutamate NMDA receptor [1] = test: Inhibition of [3H]MK-801 binding to NMDA receptor of adult Wistar rat brain cortical membranes: Range 50-500; type: cell membranes, Membrane
# Glutamate NMDA receptor [2] = test: Inhibition of [3H]MK-801 binding to NMDA receptor of adult Wistar rat brain cortical membranes; type: cell membranes, Membrane
# Rattus norvegicus [3] = species: Rattus norvegicus; test: Percent inhibition of delayed neural death at concentration of 50 uM induced by glutamate and glycine in neocortical neurons of Wistar rat fetus; type: functional
# Rattus norvegicus [4] = species: Rattus norvegicus; test: Percent inhibition of delayed neural death at concentration of 500 uM induced by glutamate and glycine in neocortical neurons of Wistar rat fetus; type: functional
IC50 (Glutamate NMDA receptor [1]),Structure (SMILES),IC50 (Glutamate NMDA receptor [2]),Inhibition (Rattus norvegicus [3]),Inhibition (Rattus norvegicus [4])
< 500 µM,N[C@H](CC(=O)c1cccs1)C(=O)O,,,
,N[C@H](CC(=O)c1ccccn1)C(=O)O,~300 µM,18.4%,60.3%
